Measured values: PubChem BioAssay AID1963962 (Molecular Pharmacology Branch, DTP, NCI, 2024)

System: 967376-340-R-J2-PDC multicell spheroid viability
Experiment: Anticancer human tumor 967376-340-R-J2-PDC patient-derived colon adenocarcinoma cell line growth inhibition [PI3K]
Settings: for IC50: curve of first compound; for viability, T/C: stronger effect = lower value
How it was run: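 Complex 3D spheroids (cancer cells + endothelial HUVEC + mesenchymal stem cells); drug pairs of targeted agent x inavolisib/alpelisib/duvelisib/copanlisib; half-log series from ~Cmax, max 10 microM if Cmax unknown; endpoint viability.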
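Further: spheroids exposed to agents for 7 days before read-out.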
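Wherever viability, T/C is given: luminescence used as surrogate of cell viability.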

CNC(=O)c1ccc(N2C(=S)N(c3ccc(C#N)c(C(F)(F)F)c3)C(=O)C2(C)C)cc1F + Cc1nc(NC(=O)N2CCCC2C(N)=O)sc1-c1ccnc(C(C)(C)C(F)(F)F)c1
IC50 (second compound 0.0316 µM): > 10000 nM | IC50 (second compound 0.1 µM): > 10000 nM | IC50 (second compound 0.316 µM): > 10000 nM | IC50 (second compound 1 µM): > 10000 nM | IC50 (second compound 3.16 µM): > 10000 nM | IC50 (second compound 10 µM): > 10000 nM | viability, T/C (second compound 0.0316 µM, first compound 0.0316 µM): 72.6% | viability, T/C (second compound 0.0316 µM, first compound 0.1 µM): 93.5% | viability, T/C (second compound 0.0316 µM, first compound 0.316 µM): 90.1% | viability, T/C (second compound 0.0316 µM, first compound 1 µM): 98.6% | viability, T/C (second compound 0.0316 µM, first compound 3.16 µM): 107% | viability, T/C (second compound 0.0316 µM, first compound 10 µM): 105% | viability, T/C (second compound 0.1 µM, first compound 0.0316 µM): 129% | viability, T/C (second compound 0.1 µM, first compound 0.1 µM): 85.5% | viability, T/C (second compound 0.1 µM, first compound 0.316 µM): 86.8% | viability, T/C (second compound 0.1 µM, first compound 1 µM): 88.5% | viability, T/C (second compound 0.1 µM, first compound 3.16 µM): 101% | viability, T/C (second compound 0.1 µM, first compound 10 µM): 84% | viability, T/C (second compound 0.316 µM, first compound 0.0316 µM): 64.2% | viability, T/C (second compound 0.316 µM, first compound 0.1 µM): 72.8% | viability, T/C (second compound 0.316 µM, first compound 0.316 µM): 92.6% | viability, T/C (second compound 0.316 µM, first compound 1 µM): 83.5% | viability, T/C (second compound 0.316 µM, first compound 3.16 µM): 115% | viability, T/C (second compound 0.316 µM, first compound 10 µM): 85.8% | viability, T/C (second compound 1 µM, first compound 0.0316 µM): 65.6% | viability, T/C (second compound 1 µM, first compound 0.1 µM): 70% | viability, T/C (second compound 1 µM, first compound 0.316 µM): 65.6% | viability, T/C (second compound 1 µM, first compound 1 µM): 68.5% | viability, T/C (second compound 1 µM, first compound 3.16 µM): 79.7% | viability, T/C (second compound 1 µM, first compound 10 µM): 75% | viability, T/C (second compound 3.16 µM, first compound 0.0316 µM): 58.9% | viability, T/C (second compound 3.16 µM, first compound 0.1 µM): 62.6% | viability, T/C (second compound 3.16 µM, first compound 0.316 µM): 58.7% | viability, T/C (second compound 3.16 µM, first compound 1 µM): 55.9% | viability, T/C (second compound 3.16 µM, first compound 3.16 µM): 63.6% | viability, T/C (second compound 3.16 µM, first compound 10 µM): 59% | viability, T/C (second compound 10 µM, first compound 0.0316 µM): 63.9% | viability, T/C (second compound 10 µM, first compound 0.1 µM): 55% | viability, T/C (second compound 10 µM, first compound 0.316 µM): 53.2% | viability, T/C (second compound 10 µM, first compound 1 µM): 57.3% | viability, T/C (second compound 10 µM, first compound 3.16 µM): 47.3% | viability, T/C (second compound 10 µM, first compound 10 µM): 59.5%

Cn1cnc2c(F)c(Nc3ccc(Br)cc3Cl)c(C(=O)NOCCO)cc21 + Cc1nc(NC(=O)N2CCCC2C(N)=O)sc1-c1ccnc(C(C)(C)C(F)(F)F)c1
IC50 (second compound 0.0316 µM): 659 nM | IC50 (second compound 0.1 µM): 679 nM | IC50 (second compound 0.316 µM): 360 nM | IC50 (second compound 1 µM): 304 nM | IC50 (second compound 3.16 µM): 97.7 nM | IC50 (second compound 10 µM): 39.4 nM | viability, T/C (second compound 0.0316 µM, first compound 0.00949 µM): 89% | viability, T/C (second compound 0.0316 µM, first compound 0.03 µM): 101% | viability, T/C (second compound 0.0316 µM, first compound 0.0949 µM): 104% | viability, T/C (second compound 0.0316 µM, first compound 0.3 µM): 60% | viability, T/C (second compound 0.0316 µM, first compound 0.949 µM): 48.1% | viability, T/C (second compound 0.0316 µM, first compound 3 µM): 19.7% | viability, T/C (second compound 0.1 µM, first compound 0.00949 µM): 88.3% | viability, T/C (second compound 0.1 µM, first compound 0.03 µM): 56.1% | viability, T/C (second compound 0.1 µM, first compound 0.0949 µM): 76.7% | viability, T/C (second compound 0.1 µM, first compound 0.3 µM): 61.8% | viability, T/C (second compound 0.1 µM, first compound 0.949 µM): 43.8% | viability, T/C (second compound 0.1 µM, first compound 3 µM): 28.7% | viability, T/C (second compound 0.316 µM, first compound 0.00949 µM): 68.5% | viability, T/C (second compound 0.316 µM, first compound 0.03 µM): 81.5% | viability, T/C (second compound 0.316 µM, first compound 0.0949 µM): 62.5% | viability, T/C (second compound 0.316 µM, first compound 0.3 µM): 56.7% | viability, T/C (second compound 0.316 µM, first compound 0.949 µM): 27% | viability, T/C (second compound 0.316 µM, first compound 3 µM): 16% | viability, T/C (second compound 1 µM, first compound 0.00949 µM): 68.8% | viability, T/C (second compound 1 µM, first compound 0.03 µM): 64.4% | viability, T/C (second compound 1 µM, first compound 0.0949 µM): 61.1% | viability, T/C (second compound 1 µM, first compound 0.3 µM): 51.6% | viability, T/C (second compound 1 µM, first compound 0.949 µM): 28.4% | viability, T/C (second compound 1 µM, first compound 3 µM): 15.6% | viability, T/C (second compound 3.16 µM, first compound 0.00949 µM): 54% | viability, T/C (second compound 3.16 µM, first compound 0.03 µM): 64.8% | viability, T/C (second compound 3.16 µM, first compound 0.0949 µM): 49.2% | viability, T/C (second compound 3.16 µM, first compound 0.3 µM): 26.6% | viability, T/C (second compound 3.16 µM, first compound 0.949 µM): 9.72% | viability, T/C (second compound 3.16 µM, first compound 3 µM): 3.22% | viability, T/C (second compound 10 µM, first compound 0.00949 µM): 54.6% | viability, T/C (second compound 10 µM, first compound 0.03 µM): 49.7% | viability, T/C (second compound 10 µM, first compound 0.0949 µM): 44.6% | viability, T/C (second compound 10 µM, first compound 0.3 µM): 28.8% | viability, T/C (second compound 10 µM, first compound 0.949 µM): 5.99% | viability, T/C (second compound 10 µM, first compound 3 µM): 1.33%
